Data set [1] has as its system Hbb^th3/+ mouse model of β-thalassemia intermedia. The data set can be described thus: Combination study: serum iron (MULTIGENT Iron assay), transferrin ELISA and calculated TSAT. Type of data set: in vivo. The settings on record: for TSAT: calculated from Tf and serum iron, day 23, 1 h after last DFX dose, approx. 20 h after last Fpn127 dose; for TSAT / serum iron: th3/+ mice, all animals, mean; for serum iron: day 23, 1 h after last DFX dose (30 mg/kg), approx. 20 h after last Fpn127 dose (120 mg/kg). The procedure:
[…] Anesthetized animals were subsequently euthanized by cervical dislocation.
Serum levels of iron were determined in triplicates using MULTIGENT Iron assay (Abbott Diagnostics, Cat. 6K95). Serum Transferrin (TO was measured in duplicates using a mouse-specific ELISA according to the manufacturer's instructions (Abcam, Cat. ab157724). Transferrin saturation (TSAT) was calculated using the formula: […]

Data set [2] shares this test system. The conditions noted are these: in vivo.
Procedure: The aim of this study was to test whether the concurrent use of the iron chelator DFX administered once daily (QD) alone at 30 mg/kg or in combination with Fpn127 administered QD at 120 mg/kg for 3 weeks is causing any therapeutic interactions in a mouse model of β-thalassemia intermedia (Hbb^th3/+; B6; 129P—b1tm1Unc-b2tm1Unc/J, Jackson Laboratories, Stock Number: 002683).
Animals were euthanized 1 h after the last dose of DFX on study day 23 (dosing day 17).
On the final study day (day 23), spleen, liver, and kidneys were collected and snap frozen in liquid nitrogen for further analysis, as outlined below. Wet weight of spleen, liver, and kidneys were recorded.
Content of total Fe was determined in pieces of spleens, livers, and kidneys by ICP-OES in the Analytical Development group of Vifor (International) Ltd., St. Gallen.
Individual wet weights of organs were recorded. Individual values of total Fe were measured in livers, spleens, and kidneys. Individual values of total Fe content and concentration were calculated. Mean±SD of total Fe concentration and content in livers, spleens, and kidneys was calculated for each group.
Data set [3] shares this test system. Nature of the data set: Combination study: serum EPO (DuoSet ELISA). Type of data set: in vivo. The conditions noted are these: for EPO: serum, th3/+ mice, day 23, DFX 30 mg/kg QD, Fpn127 120 mg/kg QD p.o., all animals, mean. The procedure: On day 23 (study end) 1 hour after dosing blood was collected by retro-orbital bleeding from pre-terminally anesthetized mice into BD Microtainer Tubes (Cat. 365967 and 365975) for determination of serum iron, transferrin, erythropoietin and compound exposure. Anesthetized animals were subsequently euthanized by cervical dislocation.
[formula] Serum EPO was measured using a mouse-specific DuoSet ELISA according to the manufacturer's instructions (R&D Systems, Cat. DY959). Plasma concentrations of Fpn127 and DFX were measured at GVK Biosciences, Hyderabad, IN. Flow Cytometric Analysis of Intracellular ROS, Mitochondria, and PS Exposure
In general terms: In an ELISA, binding on a coated surface is turned into a signal by an enzyme label.

Data set [4] has the same test system. Nature of the data set: Combination study: hemoglobin (HemoCue photometer). The conditions noted are these: for Hb concentration: th3/+ mice, Fpn127 120 mg/kg QD p.o., mean. Format: in vivo. The procedure: One day after switching to lid a blood sample was taken by tail vein incision to determine the baseline Hb levels. Hb was measured using a HaemoCue® device. Hb was also measured on days 8, 15, and 22 in the morning before dosing. The animals were dosed p.o. D with 30 mg/kg DFX in 30% Kolliphor, 120 mg/kg Fpn127 in 0.5% C, or both for a total of 17 doses during the 23 days of study. 30% Kolliphor and 0.5% C were dosed as vehicles. The dose of DFX was administered at the beginning of the dark cycle (active phase) at 9:00 followed by 3 h of access to lid. Then, mice were dosed with Fpn127 (or 0.5% C) and were given access to sd for a 6 h period before switched back to lid. On the dosing was paused and mi had access to lid ad libitum.
Hb was measured on days 1, 8, 15 and 22. Individual Hb values were determined at the starting day of the experiment (day 1) and weekly thereafter during the experimental phase in the morning before the first daily dose. A blood sample was taken by tail vein incision and Hb was measured using a HemoCue® DM201 Hb photometer.

Data set [5] can be described thus: Half-life of orally administered Fpn127 in rodents. The settings on record: in vivo, po.
Data set [6] relates to Hbb^th3/+ mice. The data set can be described thus: NTBI in plasma after blood transfusion (BT) in Hbb^th3/+ mice (Fe-NTA colorimetric assay). Type of data set: in vivo, mouse. The conditions noted are these: single oral dose 120 mg/kg 30 min before BT, 3 h post BT (FIG. 13). The procedure: In order to establish the kinetics of NTBI generation in Hbb th3/+ mice (B6.129P2-Hbb-b1tm1Unc Hbb-b2tm1Unc/J, #002683) following blood transfusion (BT) pilot experiments were performed. The wild-type (We) littermates of Hbbth3/+ were used as blood donors for transfusions. Peripheral blood was collected from terminally anesthetized WT mice via retro-orbital route from 3-5 female mice and seven parts of blood were mixed with one part of 14% citrate-phosphate-dextrose adenine and stored at 4° C. until the transfusion (24 h or 15 days). The donor blood was pre-warmed to 37° C. prior to the transfusion. […]
NTBI was measured in murine plasma samples by a Fe-Nitrilotriacetate (NTA)-based assay, adapted from a protocol published by Gosriwatana I et al. 1999 (Quantification of non-transferrin-bound iron in the presence of unsaturated transferrin. Gosriwatana I, Loreal O. Lu S, Brissot P, Porter J, Hider R C. Quantification of non-transferrin-bound iron in the presence of unsaturated transferrin. Anal Biochem. 1999 Sep. 10; 273(2):212-20. First, a solution of 800 mM Nitrilotriacetate acid (NTA) trisodium (Sigma, 72565) and a solution of 800 mM NTA disodium (Sigma, N0128) were prepared and then mixed together to obtain a solution at pH 7.0. […] After 30 minutes of incubation at room temperature, samples were measured in a plate reader (Biotec) at 537 nm.

[7] abbreviates: DFX 30 mg/kg QD, day 1 (before dosing), all animals.
The mark [8] stands for this setting: DFX 30 mg/kg QD, day 1 (before dosing), females.
Where [9] appears, read: DFX 30 mg/kg QD, day 1 (before dosing), males.
[10] abbreviates: DFX 30 mg/kg QD, day 8, all animals.
The mark [11] stands for this setting: DFX 30 mg/kg QD, day 8, females.
Where [12] appears, read: DFX 30 mg/kg QD, day 15, all animals.
[13] abbreviates: DFX 30 mg/kg QD, day 15, females.
The mark [14] stands for this setting: DFX 30 mg/kg QD, day 22, all animals.
The mark [15] stands for this setting: DFX 30 mg/kg QD, day 22, females.

Several values for one entry are separate records, joined by “and”; a condition that tells them apart may be missing. Identical values can stand only once. Entries after “also recorded” stand apart in the source; their conditions may differ.

With `O=C(O)c1ccc(-n2nc(-c3ccccc3O)nc2-c2ccccc2O)cc1` [DFX, deferasirox, reference compound], the TSAT in data set [1] is 27.5%. The serum iron in data set [1] was 30.8 ± 5.9 µM and 30.8 µM. The “effect on kidney weight vs vehicle-treated Hbbth3/+ mice” value in data set [2] is given as “no effect on kidney weight”. For the same molecule, the “effect on liver weight vs vehicle-treated Hbbth3/+ mice” value in data set [2] is given as “no effect on liver weight”. Also, the EPO in data set [3] was 5277 ± 1710 pg/mL and 5277 pg/mL. Besides, the Hb concentration in data set [4] (setting [7]) is 84 g/L; in data set [4] (setting [8]), 86 ± 2 g/L and 86 g/L; in data set [4] (setting [9]), 82 ± 3 g/L and 82 g/L; in data set [4] (setting [10]), 98 g/L; in data set [4] (setting [11]) it was 99 g/L; in data set [4] (DFX 30 mg/kg QD, day 8, males), 96 g/L. The Hb concentration in data set [4] (setting [12]) is given as 81 g/L; in data set [4] (setting [13]), 82 g/L; in data set [4] (DFX 30 mg/kg QD, day 15, males), 80 g/L; in data set [4] (setting [14]), 86 g/L; in data set [4] (setting [15]) it was 85 g/L; in data set [4] (DFX 30 mg/kg QD, day 22, males), 88 g/L.
Regarding `O=C(NCc1ncccc1F)c1coc(CCNCCc2nc3ccccc3[nH]2)n1` [Fpn127], the “effect on TSAT” value in data set [1] (Hbbth3/+ mice, day 23 (FIG. 10)) was “significantly decreased”. Further, the TSAT in data set [1] is given as 17.7%. The “effect on serum iron vs vehicle treated th3/+ and WT animals” value in data set [1] (day 23, last Fpn127 dose given 20 h before (FIG. 10)) is reported as “significantly reduced”. For the same molecule, the serum iron in data set [1] was 19.9 ± 3.3 µM and 19.9 µM. The half-life (usually how long it takes for the measured level to halve) in data set [5] was ~2 h. In addition, the “NTBI in plasma after blood transfusion” value in data set [6] was “prevents release; also recorded: prevented the increase of NTBI”. The “effect on kidney weight vs vehicle-treated Hbbth3/+ mice” value in data set [2] is “no effect on kidney weight”. Moreover, the “effect on liver weight vs vehicle-treated Hbbth3/+ mice” value in data set [2] is recorded as “no effect on liver weight”. In addition, the “effect on EPO levels” value in data set [3] (Hbbth3/+ animals, day 23 (FIG. 10)) is given as “reduced EPO levels”. Also, the EPO in data set [3] is 3938 ± 1167 pg/mL and 3938 pg/mL. Besides, the “change of Hb levels compared to vehicle-treated mice” value in data set [4] (Hbb^th3/+ mice, by the study end, Fpn127 120 mg/kg QD, DFX 30 mg/kg QD) is recorded as 13 g/L. For the same molecule, the “Hb levels during the study duration” value in data set [4] (Hbbth3/+ animals (FIG. 6)) was “increased with time”. Besides, the Hb concentration was 85 g/L in data set [4] (setting [7]); 85 ± 4 g/L and 85 g/L in data set [4] (setting [8]); 85 ± 6 g/L and 85 g/L in data set [4] (setting [9]); 92 g/L in data set [4] (setting [10]); 93 g/L in data set [4] (setting [11]); 90 g/L in data set [4] (DFX 30 mg/kg QD, day 8, males). Also, the Hb concentration in data set [4] (setting [12]) amounted to 96 g/L; in data set [4] (setting [13]) it was 99 g/L; in data set [4] (DFX 30 mg/kg QD, day 15, males), 93 g/L; in data set [4] (setting [14]) it was 98 g/L; in data set [4] (setting [15]), 101 g/L; in data set [4] (DFX 30 mg/kg QD, day 22, males) it was 95 g/L.

Values taken from patent publication US12533348B2, “Ferroportin-inhibitors for the use in the treatment of transfusion-dependent beta-thalassemia (TDT)” (Vifor (International) AG, priority 2019, dated 2026).
